Experimental data published in US8178506B2, “Oligomeric compounds and compositions for use in modulation of small non-coding RNAs” (Regulus Therapeutics Inc., priority 2003, dated 2012).
In the oligonucleotide strings, read from the 5' end, every base follows the letter of its sugar. An asterisk marks phosphorothioate; unmarked linkages are phosphodiester. Other units and linkages are bracketed, terminal groups are in braces. A string of capitals states the bases alone. e = 2'-O-(2-methoxyethyl) (MOE); [5mC] = 5-methylcytosine

Experiments:
Type in all cases: cell-based, human
aP2 = aP2 mRNA expression in adipocytes (real-time PCR); conditions: for AP2 mRNA: differentiating adipocytes, control = treatment with ISIS 342673; for aP2 mRNA: differentiating adipocytes transfected with oligomeric compound, Table 75
Method: (§1) Expression of the four hallmark genes, HSL, aP2, Glut4, and PPARγ, is also measured in adipocytes transfected with oligomeric compounds of the invention. Cells are lysed on day nine post-transfection and total RNA is harvested. The amount of total RNA in each sample is determined using a Ribogreen Assay (Invitrogen Life Technologies, Carlsbad, Calif.).
(§2) For assaying adipocyte differentiation, expression of the four hallmark genes, HSL, aP2, Glut4, and PPARγ, as well as triglyceride (TG) accumulation and leptin secretion were measured in adipocytes transfected with the uniform 2′-MOE phosphorothioate (PS) oligomeric compounds previously described. Cells are lysed on day nine post-transfection, in a guanadinium-containing buffer and total RNA is harvested. Real-time PCR is performed (Applied Biosystems, Prism 7700) on the total RNA using the following primer/probe sets for the adipocyte differentiation hallmark genes: (aP2): forward 5′-GGTGGTGGAATGCGTCATG-3′ (SEQ ID NO: 746), reverse 5′-[…]-3′ (SEQ ID NO: 747), probe 5′-FAM-[…]-TAMRA-3′ (SEQ ID NO: 748); (Glut4): forward 5′-GGCCTCCGCAGGTTCTG-3′ (SEQ ID NO: 749), reverse 5′-[…]-3′ (SEQ ID NO: 750), probe 5′-FAM-[…]-TAMRA-3′ (SEQ ID NO: 751); (HSL): forward 5′-ACCTGCGCACAATGACACA-3′ (SEQ ID NO: 752), reverse 5′-[…]-3′ (SEQ ID NO: 753), probe 5′-FAM-[…]-TAMRA-3′ (SEQ ID NO: 754); (PPAR-γ): forward 5′-[…]-3′ (SEQ ID NO: 755), reverse 5′-[…]-3′ (SEQ ID NO: 756), probe 5′-FAM-[…]-TAMRA-3′ (SEQ ID NO: 757). The amount of total RNA in each sample is determined using a Ribogreen Assay (Molecular Probes, Eugene, Oreg.), and expression levels of the adipocyte differentiation hallmark genes were normalized to total RNA.

HSL = HSL mRNA expression in adipocytes (real-time PCR)
Method: as §1, §2

Glut4 = Glut4 mRNA expression in adipocytes (real-time PCR)
Method: as §1, §2

PPARγ = PPARγ mRNA expression in adipocytes (real-time PCR)
Method: as §1, §2

adipocytes = test: Triglyceride accumulation assay in adipocytes
Method: The triglyceride accumulation assay measures the synthesis of triglyceride by adipocytes. Triglyceride accumulation is measured using the Infinity™ Triglyceride reagent kit (Sigma-Aldrich, St. Louis, Mo.). On day nine post-transfection, cells are washed and lysed at room temperature, and the triglyceride assay reagent is added. Triglyceride accumulation is measured based on the amount of glycerol liberated from triglycerides by the enzyme lipoprotein lipase. Liberated glycerol is phosphorylated by glycerol kinase, and hydrogen peroxide is generated during the oxidation of glycerol-1-phosphate to dihydroxyacetone phosphate by glycerol phosphate oxidase. Horseradish peroxidase (HRP) uses H2O2 to oxidize 4-aminoantipyrine and 3,5 dichloro-2-hydroxybenzene sulfonate to produce a red-colored dye. Dye absorbance, which is proportional to the concentration of glycerol, is measured at 515 nm using an UV spectrophotometer. Glycerol concentration is calculated from a standard curve for each assay, and data are normalized to total cellular protein as determined by a Bradford assay (Bio-Rad Laboratories, Hercules, Calif.).
An increase in triglyceride content is another well-established marker for adipocyte differentiation. The triglyceride accumulation assay measures the synthesis of triglyceride by adipocytes. Triglyceride accumulation was measured using the Infinity™ Triglyceride reagent kit (Sigma-Aldrich, St. Louis, Mo.). Human white preadipocytes (Zen-Bio Inc., Research Triangle Park, N.C.) were grown in preadipocyte media (ZenBio Inc.). One day before transfection, 96-well plates were seeded with 3000 cells/well. Cells were transfected according to standard published procedures with 250 nM oligomeric compound in LIPOFECTIN™ (Invitrogen Corporation, Carlsbad, Calif.) (Monia et al., J. Biol. Chem. 1993 268(19):14514-22). Oligomeric compounds were tested in triplicate on each 96-well plate, and the effects of TNF-α, a positive drug control that inhibits adipocyte differentiation, were also measured in triplicate. Negative and transfectant-only controls may be measured up to six times per plate. After the cells have reached confluence (approximately three days), they were exposed to differentiation media (Zen-Bio, Inc.) containing a PPAR-γ agonist, IBMX, dexamethasone, and insulin for three days. Cells were then fed adipocyte media (Zen-Bio, Inc.), which was replaced at 2 to 3 day intervals. […] Triglyceride accumulation was measured based on the amount of glycerol liberated from triglycerides by the enzyme lipoprotein lipase. Liberated glycerol is phosphorylated by glycerol kinase, and hydrogen peroxide is generated during the oxidation of glycerol-1-phosphate to dihydroxyacetone phosphate by glycerol phosphate oxidase. Horseradish peroxidase (HRP) uses H2O2 to oxidize 4-aminoantipyrine and 3,5 dichloro-2-hydroxybenzene sulfonate to produce a red-colored dye. Dye absorbance, which is proportional to the concentration of glycerol, was measured at 515 nm using an UV spectrophotometer. Glycerol concentration was calculated from a standard curve for each assay, and data were normalized to total cellular protein as determined by a Bradford assay (Bio-Rad Laboratories, Hercules, Calif.). Results are expressed as a percent±standard deviation relative to transfectant-only control.

[1] = Table 18, differentiating adipocytes, control = treatment with ISIS 342673
[2] = differentiating adipocytes transfected with oligomeric compound, Table 75
[3] = Table 17, differentiating adipocytes, control = treatment with ISIS 342673

| Substance | AP2 mRNA (aP2; Table 18) | aP2 mRNA (aP2) | HSL mRNA (HSL; [1]) | HSL mRNA (HSL; [2]) | GLUT4 mRNA (Glut4; [1]) | GLUT4 mRNA (Glut4; [2]) | PPAR gamma mRNA (PPARγ; [1]) | PPAR gamma mRNA (PPARγ; [2]) | TG (triglyceride accumulation) (adipocytes; [1]) | TG (triglyceride accumulation) (adipocytes; [2]) | AP2 mRNA (aP2; Table 17) | HSL mRNA (HSL; [3]) | GLUT4 mRNA (Glut4; [3]) | PPAR gamma mRNA (PPARγ; [3]) | TG (triglyceride accumulation) (adipocytes; [3]) |
| --- | --- | --- | --- | --- | --- | --- | --- | --- | --- | --- | --- | --- | --- | --- | --- |
| 328108 (antisense eA*eA*eA*e[5mC]*eT*eT*eG*eT*eT*eA*eA*eT*eT*eG*eA*e[5mC]*eT*eG*eT*e[5mC]*eA) [compound 328108] | 83.7 percentage of control | 87 percentage of untreated control (UTC) | 90.1 percentage of control | 75 percentage of untreated control (UTC) | 94.9 percentage of control | 65 percentage of untreated control (UTC) | 84.0 percentage of control | 72 percentage of untreated control (UTC) | 89.6 percentage of control | 79 percentage of untreated control (UTC) | – | – | – | – | – |
| 328095 (antisense eT*e[5mC]*eA*e[5mC]*eA*eG*eA*eG*eA*eA*eA*eA*e[5mC]*eA*eA*e[5mC]*eT*eG*eG*eT*eA) [compound 328095] | – | 70 percentage of untreated control (UTC) | – | 83 percentage of untreated control (UTC) | – | 98 percentage of untreated control (UTC) | – | 92 percentage of untreated control (UTC) | – | 110 percentage of untreated control (UTC) | – | – | – | – | – |
| 328118 (antisense eT*eA*eT*eT*eA*eT*e[5mC]*eA*eG*e[5mC]*eA*eT*e[5mC]*eT*eG*e[5mC]*eT*eT*eG*e[5mC]*eA) [compound 328118] | – | 74 percentage of untreated control (UTC) | – | 67 percentage of untreated control (UTC) | – | 57 percentage of untreated control (UTC) | – | 72 percentage of untreated control (UTC) | – | 69 percentage of untreated control (UTC) | 92.7 percentage of control | 85.3 percentage of control | 76.6 percentage of control | 80.2 percentage of control | 69.3 percentage of control |
| 348117 (GAACCCACAAUCCCUGGCUUA; all 2'-MOE, all phosphorothioate, methylation of C and T or U not given here) [compound 348117] | – | 70 percentage of untreated control (UTC) | – | 55 percentage of untreated control (UTC) | – | 73 percentage of untreated control (UTC) | – | 65 percentage of untreated control (UTC) | – | 66 percentage of untreated control (UTC) | – | – | – | – | – |
| 340343 (antisense ACAGGAGUCUGAGCAUUUGA; all 2'-MOE, all phosphorothioate, methylation of C and T or U not given here) [compound 340343] | – | 60 percentage of untreated control (UTC) | – | 46 percentage of untreated control (UTC) | – | 33 percentage of untreated control (UTC) | – | 59 percentage of untreated control (UTC) | – | 35 percentage of untreated control (UTC) | – | – | – | – | – |
| 346906 (ACAGGAUUGAGGGGGGGCCCU; all 2'-MOE, all phosphorothioate, methylation of C and T or U not given here) [compound 346906] | – | 77 percentage of untreated control (UTC) | – | 70 percentage of untreated control (UTC) | – | 70 percentage of untreated control (UTC) | – | 80 percentage of untreated control (UTC) | – | 83 percentage of untreated control (UTC) | – | – | – | – | – |
| 344612 (ACGGAAGGGCAGAGAGGGCCAG; anti-miR; all 2'-MOE, all phosphorothioate, methylation of C not given here) [compound 344612] | – | 72 percentage of untreated control (UTC) | – | 59 percentage of untreated control (UTC) | – | 40 percentage of untreated control (UTC) | – | 62 percentage of untreated control (UTC) | – | 69 percentage of untreated control (UTC) | – | – | – | – | – |
| 328121 (antisense eA*eT*eG*eA*e[5mC]*eT*eA*e[5mC]*eA*eA*eG*eT*eT*eT*eA*eT*eG*eG*e[5mC]*e[5mC]*eA) [compound 328121] | – | 119 percentage of untreated control (UTC) | – | 110 percentage of untreated control (UTC) | – | 115 percentage of untreated control (UTC) | – | 105 percentage of untreated control (UTC) | – | 119 percentage of untreated control (UTC) | 127.0 percentage of control | 126.0 percentage of control | 140.8 percentage of control | 103.6 percentage of control | 134.8 percentage of control |
| 340356 (antisense CUCAAUAGACUGUGAGCUCCUU; all 2'-MOE, all phosphorothioate, methylation of C and T or U not given here) [compound 340356] | – | 73 percentage of untreated control (UTC) | – | 59 percentage of untreated control (UTC) | – | 54 percentage of untreated control (UTC) | – | 62 percentage of untreated control (UTC) | – | 43 percentage of untreated control (UTC) | – | – | – | – | – |
| 341798 (antisense GCAUUAUUACUCACGGUACGA; all 2'-MOE, all phosphorothioate, methylation of C and T or U not given here) [compound 341798] | – | 84 percentage of untreated control (UTC) | – | 77 percentage of untreated control (UTC) | – | 55 percentage of untreated control (UTC) | – | 70 percentage of untreated control (UTC) | – | 62 percentage of untreated control (UTC) | – | – | – | – | – |
| 328113 (antisense e[5mC]*eA*eA*eA*eA*eA*eT*eT*eA*eT*e[5mC]*eA*eG*e[5mC]*e[5mC]*eA*eG*eT*eT*eT*eA) [compound 328113] | 84.5 percentage of control | 87 percentage of untreated control (UTC) | 90.6 percentage of control | 83 percentage of untreated control (UTC) | 99.9 percentage of control | 78 percentage of untreated control (UTC) | 93.8 percentage of control | 85 percentage of untreated control (UTC) | 80.8 percentage of control | 74 percentage of untreated control (UTC) | – | – | – | – | – |
